{"source": "ChEMBL document CHEMBL5029152", "about": "“Discovery of Highly Potent and Selective IRAK1 Degraders to Probe Scaffolding Functions of IRAK1 in ABC DLBCL” (J Med Chem, 2021)", "target": "T1, Mitogen-activated protein kinase kinase kinase 19 (Homo sapiens) (UniProt Q56UN5)", "T1 sequence (whole entry)": "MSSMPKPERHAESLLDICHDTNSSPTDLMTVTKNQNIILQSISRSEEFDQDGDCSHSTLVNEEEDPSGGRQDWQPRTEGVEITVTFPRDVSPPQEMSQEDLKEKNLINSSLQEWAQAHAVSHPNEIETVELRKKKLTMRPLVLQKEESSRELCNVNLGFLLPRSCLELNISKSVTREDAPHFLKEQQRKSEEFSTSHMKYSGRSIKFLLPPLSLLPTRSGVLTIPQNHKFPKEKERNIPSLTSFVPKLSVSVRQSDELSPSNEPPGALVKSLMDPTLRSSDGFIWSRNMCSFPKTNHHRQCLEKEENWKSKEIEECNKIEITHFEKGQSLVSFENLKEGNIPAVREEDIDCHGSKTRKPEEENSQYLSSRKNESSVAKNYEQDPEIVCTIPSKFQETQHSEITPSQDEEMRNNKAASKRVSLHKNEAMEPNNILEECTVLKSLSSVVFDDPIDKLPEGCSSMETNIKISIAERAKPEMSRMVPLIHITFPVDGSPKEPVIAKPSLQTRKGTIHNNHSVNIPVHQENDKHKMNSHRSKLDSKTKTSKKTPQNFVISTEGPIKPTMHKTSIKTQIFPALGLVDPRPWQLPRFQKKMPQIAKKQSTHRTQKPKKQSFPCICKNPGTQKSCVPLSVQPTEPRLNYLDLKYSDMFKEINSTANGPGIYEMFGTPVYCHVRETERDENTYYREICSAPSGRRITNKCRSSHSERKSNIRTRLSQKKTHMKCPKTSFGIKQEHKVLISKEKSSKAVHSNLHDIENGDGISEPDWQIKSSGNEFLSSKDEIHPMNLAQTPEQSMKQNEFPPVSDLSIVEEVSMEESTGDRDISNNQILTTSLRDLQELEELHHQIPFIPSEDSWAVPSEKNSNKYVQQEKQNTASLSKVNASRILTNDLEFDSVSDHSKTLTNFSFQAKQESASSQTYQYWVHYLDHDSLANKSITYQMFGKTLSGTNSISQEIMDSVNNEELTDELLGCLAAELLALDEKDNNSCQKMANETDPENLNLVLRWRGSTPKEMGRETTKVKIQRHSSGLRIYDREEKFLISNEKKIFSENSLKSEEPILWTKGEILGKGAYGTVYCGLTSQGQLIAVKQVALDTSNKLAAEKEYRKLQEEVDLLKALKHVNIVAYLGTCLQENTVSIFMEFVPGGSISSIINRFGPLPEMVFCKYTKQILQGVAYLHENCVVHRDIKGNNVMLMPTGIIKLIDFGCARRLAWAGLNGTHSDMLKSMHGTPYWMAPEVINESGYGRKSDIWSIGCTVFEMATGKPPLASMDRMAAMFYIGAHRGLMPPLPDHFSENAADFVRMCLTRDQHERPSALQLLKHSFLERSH", "assay": "Inhibition of wild-type human partial length YSK4 (T1019 to H1328 residues) expressed in mammalian expression system at 1 uM by Kinomescan method", "note": "Activity calls are given as the source filed them. The calls are words filed in the database; no cut-off is given here.", "data": [{"smiles": "COc1cc(N2CCC(OCC(=O)N[C@H](C(=O)N3C[C@H](O)C[C@H]3C(=O)N[C@@H](C)c3ccc(-c4scnc4C)cc3)C(C)(C)C)CC2)ccc1NC(=O)c1cccc(-c2ccn[nH]2)n1", "values": [{"measurement": "inhibition", "result": "Active"}]}]}
